Test results: ChEMBL document CHEMBL4371036, “Discovery and structure-activity relationship of imidazolinylindole derivatives as kallikrein 7 inhibitors” (Bioorg Med Chem Lett, 2019)

Assays:
Kallikrein-7 [1] = biological target: Kallikrein-7 (Homo sapiens, UniProt P49862); assay: Inhibition of thermolysin activated recombinant human C-terminal 10-His tagged KLK7 (E23 to H252 residues) using MOCAc-Arg-Pro-Lys-Pro-Val-Glu-Nva-Trp-Arg-Lys(Dnp)-NH2 as substrate preincubated for 10 mins followed by substrate addition and measured after 30 mins by fluorescence analysis
[2] = biological target: Kallikrein-7 (Mus musculus) (UniProt Q91VE3); assay: Inhibition of enterokinase activated recombinant mouse C-terminal His6-tagged KLK7 (Gln22 to Arg249 residues) at 100 uM using MOCAc-Arg-Pro-Lys-Pro-Val-Glu-Nva-Trp-Arg-Lys(Dnp)-NH2 as substrate preincubated for 10 mins followed by substrate addition and measured after 30 mins by fluorescence analysis relative to control
Kallikrein-7 [3] = biological target: Kallikrein-7 (Mus musculus, UniProt Q91VE3); assay: Inhibition of enterokinase activated recombinant mouse C-terminal His6-tagged KLK7 (Gln22 to Arg249 residues) using MOCAc-Arg-Pro-Lys-Pro-Val-Glu-Nva-Trp-Arg-Lys(Dnp)-NH2 as substrate preincubated for 10 mins followed by substrate addition and measured after 30 mins by fluorescence analysis
Chain of Kallikrein-7 (Mus musculus, UniProt Q91VE3) (Q91VE3 whole entry): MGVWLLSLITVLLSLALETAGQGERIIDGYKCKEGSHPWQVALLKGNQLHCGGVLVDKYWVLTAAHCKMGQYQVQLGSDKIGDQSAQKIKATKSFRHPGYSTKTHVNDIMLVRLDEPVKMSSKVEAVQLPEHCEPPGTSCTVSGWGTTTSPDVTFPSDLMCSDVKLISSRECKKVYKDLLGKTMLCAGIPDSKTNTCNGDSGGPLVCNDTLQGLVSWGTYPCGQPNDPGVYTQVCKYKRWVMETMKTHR

Chain of Kallikrein-7 (Mus musculus) (Q91VE3 whole entry): as above
Chain of Kallikrein-7 (Homo sapiens, UniProt P49862) (P49862 whole entry, the tested form may be a part): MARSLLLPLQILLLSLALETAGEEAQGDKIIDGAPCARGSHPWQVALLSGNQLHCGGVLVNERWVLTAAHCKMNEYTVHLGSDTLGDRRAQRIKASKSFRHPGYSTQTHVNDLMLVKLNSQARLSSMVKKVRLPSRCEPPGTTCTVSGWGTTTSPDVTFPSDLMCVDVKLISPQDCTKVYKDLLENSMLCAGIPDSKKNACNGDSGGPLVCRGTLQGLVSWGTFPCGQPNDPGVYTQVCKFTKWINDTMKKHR

| Compound | IC50 (Kallikrein-7 [1]) [µM] | inhibition [2] [%] | IC50 (Kallikrein-7 [3]) [µM] |
| --- | --- | --- | --- |
| CC1=NC(c2cn(S(C)(=O)=O)c3ccccc23)CN1 (configuration not stated) | > 100 |  |  |
| CC1=NC(c2cn(S(=O)(=O)c3ccccc3F)c3ccc(C)cc23)CN1 (configuration not stated) | 4.1 |  | 6.4 |
| CC1=NC(c2cn(S(=O)(=O)c3ccccc3C#N)c3ccc(C)cc23)CN1 (configuration not stated) | 6.7 |  | 11 |
| CC1=NC(c2cn(S(=O)(=O)c3ccccc3Br)c3ccc(C)cc23)CN1 (configuration not stated) | 0.39 |  | 0.4 |
| CC1=NC(c2cn(S(=O)(=O)c3ccccc3Cl)c3ccc(C)cc23)CN1 (configuration not stated) | 1.2 |  | 1.5 |
| CC1=NC(c2cn(S(=O)(=O)c3cccs3)c3ccc(C)cc23)CN1 (configuration not stated) | 11 |  | 22 |
| CC1=NC(c2cn(S(=O)(=O)c3cccc(Cl)c3)c3ccc(C)cc23)CN1 (configuration not stated) | 30 |  | 10 |
| Cc1ccc(S(=O)(=O)n2cc(C3CNC(C4CCCCC4)=N3)c3ccccc32)cc1 (configuration not stated) | > 100 |  |  |
| CC1=NC(c2cn(S(=O)(=O)c3c(Cl)cccc3Cl)c3ccc(C)cc23)CN1 (configuration not stated) | 14 |  | 10 |
| CC1=NC(c2cn(S(=O)(=O)c3ccccc3C)c3ccc(C)cc23)CN1 (configuration not stated) | 1 |  | 1.3 |

The remaining lines, values ahead:

| IC50 (Kallikrein-7 [1]) [µM] | inhibition [2] [%] | IC50 (Kallikrein-7 [3]) [µM] | Compound |
| --- | --- | --- | --- |
| 70 |  |  | Cc1ccc(S(=O)(=O)n2cc(C3CNC(C(C)C)=N3)c3ccccc32)cc1 (configuration not stated) |
| 4.7 | 35 |  | CC1=NC(c2cn(S(=O)(=O)c3ccc(Cl)cc3)c3ccc(Br)cc23)CN1 (configuration not stated) |
| > 30 | 77 |  | CC1=NC(c2cn(S(=O)(=O)c3cccc(Cl)c3)c3ccccc23)CN1 (configuration not stated) |
| 5.7 | 17 |  | CC1=NC(c2cn(S(=O)(=O)c3ccc(Cl)cc3)c3ccccc23)CN1 (configuration not stated) |
| 10 | 14 |  | CC1=NC(c2cn(S(=O)(=O)c3ccc(C)cc3)c3ccccc23)CN1 (configuration not stated) |
| 9.4 |  | > 30 | CC1=NC(c2cn(S(=O)(=O)c3ccc(F)cc3)c3ccc(C)cc23)CN1 (configuration not stated) |
| 1.9 | 33 | > 100 | CC1=NC(c2cn(S(=O)(=O)c3ccc(Cl)cc3)c3ccc(C)cc23)CN1 (configuration not stated) |
| 22 |  |  | CC1=NC(c2cn(Cc3ccc(Cl)cc3)c3ccccc23)CN1 (configuration not stated) |
| 24 |  |  | CCC1=NC(c2cn(S(=O)(=O)c3ccc(C)cc3)c3ccccc23)CN1 (configuration not stated) |
| 17 |  | 15 | CC1=NC(c2cn(S(=O)(=O)c3ccccc3)c3ccc(C)cc23)CN1 (configuration not stated) |
| > 30 |  |  | CC1=NC(c2cn(S(=O)(=O)c3ccc(Cl)cc3)c3ccccc23)CN1C (configuration not stated) |
